These results are taken from patent US20260250318A1, “COMPOSITIONS AND METHODS FOR CROSSING THE BLOOD BRAIN BARRIER” (VOYAGER THERAPEUTICS, INC., priority 2022, published 2026).

The assay deals with brain. In words: Maturation of TTM-001 capsid, NGS enrichment in brain of CD-1 Outbred mice. It is filed as in vivo. The settings on record: NGS fold-enrichment of TTM-001 matured AAV capsid variants in the brain of CD-1 Outbred mice; intravenous 1.0×10^12 VG/dose; 14 days in life; RNA; relative to non-matured TTM-001 control. A digest of the protocol:
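Pooled matured TTM-001 or TTM-002 capsid libraries (loop IV region randomized by triple-codon or low-frequency point mutagenesis) dosed IV via tail vein at 1.0×10^12 VG/dose to three female CD-1 mice. Brain RNA taken after 14 days; RT-PCR and NGS gave fold enrichment versus parent TTM-001 or TTM-002 control.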

As to “KTINGSRSPHLRAQNQQT (peptide inserted in AAV capsid)”, the “Fold enrichment over TTM-001” value stood at 3.410 fold.

Regarding KTINGSGSPHSKARQQQT, the “Fold enrichment over TTM-001” value is 2.244 fold.

For KTINGSGSPHSKAQLKLT, the “Fold enrichment over TTM-001” value was determined as 2.125 fold.

KTINGSGSPHSKAQFVRT: the “Fold enrichment over TTM-001” value was 2.596 fold.

For the sequence KTINGSKSPHFKAQNQQT, the “Fold enrichment over TTM-001” value was 3.285 fold.

With KTINGSGSPHSLWQNQQT, the “Fold enrichment over TTM-001” value came to 2.037 fold.

Turning to KTINGSMSPHRRAQNQQT, the “Fold enrichment over TTM-001” value is on record as 2.028 fold.

For KTINGSGSPHSKNTRQQT, the “Fold enrichment over TTM-001” value is listed as 2.047 fold.

On to KTINGSGSPHSKAQYRLT, for which the “Fold enrichment over TTM-001” value came to 2.088 fold.

Consider KTINGSGSPHSMLYNQQT, for which the “Fold enrichment over TTM-001” value is 2.808 fold.

As to KTINGSGSPHSKAARTQT, the “Fold enrichment over TTM-001” value amounted to 2.266 fold.

For KTINGSGSPHSKLCVQQT, the “Fold enrichment over TTM-001” value is reported as 2.659 fold.

KTINGSGSPHSKAQRWLT: the “Fold enrichment over TTM-001” value came out at 2.788 fold.

“KTINGSRSPHRPAQNQQT (peptide inserted in AAV capsid)”: the “Fold enrichment over TTM-001” value is recorded as 2.061 fold.

Turning to KTINGSGSPHSHMENQQT, the “Fold enrichment over TTM-001” value is 2.259 fold.

As to KTINGSGSPHSKAVRNQT, the “Fold enrichment over TTM-001” value was found to be 2.516 fold.

With KTINGSGSPHSKTCSQQT, the “Fold enrichment over TTM-001” value is 2.430 fold.

In the case of KTINGSGSPHSKRNLQQT, the “Fold enrichment over TTM-001” value was determined as 3.210 fold.

KTINGSGTPHSKAQNQQT: the “Fold enrichment over TTM-001” value is 2.259 fold.

KTINGSGSPHSRKQNQQT: the “Fold enrichment over TTM-001” value stood at 2.162 fold.

For the sequence KTINGSGSPHSSCQNQQT, the “Fold enrichment over TTM-001” value worked out at 2.365 fold.

As for KTINGSGSPHSKVSRQQT, the “Fold enrichment over TTM-001” value is given as 2.108 fold.

KSINGSGSPHSKAHDQQT: the “Fold enrichment over TTM-001” value is 3.592 fold.

With KEVAGSGSPHSKAQNQQT, the “Fold enrichment over TTM-001” value stood at 2.250 fold.

Turning to KTINGSGSPHSKAWYPQT, the “Fold enrichment over TTM-001” value turned out to be 2.406 fold.

Regarding KTINGYRSPHSKAQNQQT, the “Fold enrichment over TTM-001” value amounted to 2.140 fold.

With KTINGSGSPHSKIRLQQT, the “Fold enrichment over TTM-001” value is 2.348 fold.

KTINGRQSPHAKAQNQQT: the “Fold enrichment over TTM-001” value was 2.026 fold.

KTINGSGSPHSLVFNQQT: the “Fold enrichment over TTM-001” value is recorded as 2.019 fold.

Consider KTINGSGSPHSKAQCRLT, for which the “Fold enrichment over TTM-001” value worked out at 2.304 fold.

KTINGSGSPHSKLYMQQT: the “Fold enrichment over TTM-001” value was determined as 2.015 fold.

Take KTINGSGSPHSKRNGQQT: the “Fold enrichment over TTM-001” value came to 3.350 fold.

On to KTINGSGSPHSKILWQQT, for which the “Fold enrichment over TTM-001” value came to 2.838 fold.

Regarding KTINGSGSPHCSSQNQQT, the “Fold enrichment over TTM-001” value is listed as 2.253 fold.

KTINGSGSPHSLLWNQQT: the “Fold enrichment over TTM-001” value is on record as 7.983 fold.

Turning to KTINGLFSPHRKAQNQQT, the “Fold enrichment over TTM-001” value stood at 2.331 fold.

As to KTINGLTSPHRKAQNQQT, the “Fold enrichment over TTM-001” value is on record as 2.663 fold.

In the case of KTINGSGSPHSKLARQQT, the “Fold enrichment over TTM-001” value was 3.054 fold.

As to KTINGSGSPHSFVLNQQT, the “Fold enrichment over TTM-001” value came to 3.382 fold.

As to KTINTSRSPHSKAQNQQT, the “Fold enrichment over TTM-001” value was determined as 2.520 fold.

On to KTINGRPSPHVKAQNQQT, for which the “Fold enrichment over TTM-001” value amounted to 2.419 fold.

Regarding KTINGSGSPHSKARMAQT, the “Fold enrichment over TTM-001” value is 2.488 fold.

For KTINGSGSPHSKRSFQQT, the “Fold enrichment over TTM-001” value was found to be 2.197 fold.

For KTINGSGSPHSKARRLQT, the “Fold enrichment over TTM-001” value is given as 4.210 fold.

As to KTINGSGSPHSKAQNWRT, the “Fold enrichment over TTM-001” value was 2.125 fold.

KTINGPLSPHRKAQNQQT: the “Fold enrichment over TTM-001” value was determined as 2.028 fold.

As for KTINGSGSPHLWSQNQQT, the “Fold enrichment over TTM-001” value was 3.857 fold.

With KTINGSGSPHSKARTRQT, the “Fold enrichment over TTM-001” value was determined as 2.737 fold.

Take KTIMRVGSPHSKAQNQQT: the “Fold enrichment over TTM-001” value was determined as 4.875 fold.

Take “KTINGSRSPHSWAQNQQT (peptide inserted in AAV capsid)”: the “Fold enrichment over TTM-001” value came out at 2.559 fold.

For KTINGSGSPHSRRLNQQT, the “Fold enrichment over TTM-001” value was found to be 3.251 fold.

Turning to KTINGSNSPHRKAQNQQT, the “Fold enrichment over TTM-001” value is 2.218 fold.

Take KTINGSGSPHSKASRQQT: the “Fold enrichment over TTM-001” value is listed as 2.197 fold.

In the case of KTINGSGSPHSWTQNQQT, the “Fold enrichment over TTM-001” value is reported as 2.084 fold.

Turning to KTINGSGSPHSKARPYQT, the “Fold enrichment over TTM-001” value worked out at 3.050 fold.

KTINGQRSPHSKAQNQQT: the “Fold enrichment over TTM-001” value was 2.590 fold.

On to KTINGSGSPHSKATRQQT, for which the “Fold enrichment over TTM-001” value came out at 2.505 fold.

With KTINGSGSPHCSLQNQQT, the “Fold enrichment over TTM-001” value is 4.540 fold.

Take KTINGSGSPHVTWQNQQT: the “Fold enrichment over TTM-001” value is reported as 2.281 fold.

KTINGSGSPHYLVQNQQT: the “Fold enrichment over TTM-001” value stood at 3.819 fold.

As to KELVGSGSPHSKAQNQQT, the “Fold enrichment over TTM-001” value turned out to be 2.019 fold.

For KTINGSLSPHRRAQNQQT, the “Fold enrichment over TTM-001” value is 2.717 fold.

For KTINGSGSPHSKAYLRQT, the “Fold enrichment over TTM-001” value is on record as 3.356 fold.

Take KTINGLRSPHRKAQNQQT: the “Fold enrichment over TTM-001” value worked out at 3.676 fold.

In the case of “KTINGSRSPHVRAQNQQT (peptide inserted in AAV capsid)”, the “Fold enrichment over TTM-001” value came to 2.412 fold.

On to “KTINGSRSPHIRAQNQQT (peptide inserted in AAV capsid)”, for which the “Fold enrichment over TTM-001” value came to 2.356 fold.

As for KTINGSGSPHSKRASQQT, the “Fold enrichment over TTM-001” value was determined as 2.173 fold.

As to KTINGSGSPHSKARFTQT, the “Fold enrichment over TTM-001” value worked out at 2.233 fold.

On to KTINGSGSPHSKIGRQQT, for which the “Fold enrichment over TTM-001” value is 2.739 fold.

As to KTINGSGSPHSKACASQT, the “Fold enrichment over TTM-001” value was found to be 2.775 fold.

KTINGSGSPHSKLSWQQT: the “Fold enrichment over TTM-001” value worked out at 2.322 fold.

KTINGSGSPHAFLQNQQT: the “Fold enrichment over TTM-001” value was 2.475 fold.

With KTINGSGSPHSKAQFVLT, the “Fold enrichment over TTM-001” value was found to be 2.006 fold.

On to KTINGSGSPHSKAQLRIT, for which the “Fold enrichment over TTM-001” value is recorded as 2.179 fold.

On to KTINGSGSPHSKVARQQT, for which the “Fold enrichment over TTM-001” value was found to be 2.136 fold.

Regarding KTINGSGSPHSKARSYQT, the “Fold enrichment over TTM-001” value was determined as 2.382 fold.

For KTINGSGSPHSKVTRQQT, the “Fold enrichment over TTM-001” value was determined as 2.397 fold.

For KTINGLPSPHRKAQNQQT, the “Fold enrichment over TTM-001” value is recorded as 2.719 fold.

Turning to KTINGSGSPHSKQRVQQT, the “Fold enrichment over TTM-001” value was 2.117 fold.

KTINGSGSPHSKAQFRVT: the “Fold enrichment over TTM-001” value was 2.231 fold.

For the sequence KTINGSGSPHLSCQNQQT, the “Fold enrichment over TTM-001” value is 2.277 fold.

With KTINGSGSPHSKAQSYRT, the “Fold enrichment over TTM-001” value is given as 2.088 fold.

With KTINGSGSPHSKARLQQT, the “Fold enrichment over TTM-001” value turned out to be 2.089 fold.

As to KTINGSGSPHSSLCNQQT, the “Fold enrichment over TTM-001” value turned out to be 2.592 fold.

Consider KTINGSGSPHSKRTFQQT, for which the “Fold enrichment over TTM-001” value was 3.879 fold.

Regarding KTINGSGSPHSSWANQQT, the “Fold enrichment over TTM-001” value is reported as 2.264 fold.

Consider KTINGSGSPHSKPARQQT, for which the “Fold enrichment over TTM-001” value is reported as 2.538 fold.

As for KTINGSGSPHSKRTSQQT, the “Fold enrichment over TTM-001” value worked out at 2.857 fold.

For the sequence KTINGSGSPHSKAQTSRT, the “Fold enrichment over TTM-001” value turned out to be 3.421 fold.

For the sequence KTINGSGSPHLLWQNQQT, the “Fold enrichment over TTM-001” value is recorded as 3.855 fold.

In the case of KTINMSRSPHSKAQNQQT, the “Fold enrichment over TTM-001” value was determined as 2.622 fold.

Regarding KTINRVISPHSKAQNQQT, the “Fold enrichment over TTM-001” value was determined as 2.169 fold.

As to KTINGSGSPHSKAQNRMR, the “Fold enrichment over TTM-001” value was 2.804 fold.

Consider KTINGSGSPHSEIVNQQT, for which the “Fold enrichment over TTM-001” value stood at 4.931 fold.

Regarding KTINGSGSPHSLLYNQQT, the “Fold enrichment over TTM-001” value came out at 2.158 fold.

As to KTINGSGSPHSCLQNQQT, the “Fold enrichment over TTM-001” value stood at 3.559 fold.

KPLDGSGSPHSKAQNQQT: the “Fold enrichment over TTM-001” value came to 2.488 fold.

As for “KTINGSSSPHWVAQNQQT (peptide inserted in AAV capsid)”, the “Fold enrichment over TTM-001” value was 3.277 fold.

As for KTINGSGSPHSRLFNQQT, the “Fold enrichment over TTM-001” value turned out to be 2.542 fold.

With KTINGSGSPHSKAQLIVT, the “Fold enrichment over TTM-001” value was 2.235 fold.

Regarding KTINGSGSPHSKAQLLKT, the “Fold enrichment over TTM-001” value stood at 2.985 fold.

KTINGHSSPHRKAQNQQT: the “Fold enrichment over TTM-001” value was found to be 2.639 fold.

In the case of KTINGSGSPHSALWNQQT, the “Fold enrichment over TTM-001” value was determined as 2.261 fold.

KTINGRLSPHRKAQNQQT: the “Fold enrichment over TTM-001” value is listed as 2.238 fold.

On to KTINGSGSPHSKARNKQT, for which the “Fold enrichment over TTM-001” value is 2.108 fold.

With KTINGSGSPHSKAQSWRT, the “Fold enrichment over TTM-001” value is reported as 2.596 fold.

KTINGSGSPHSSRRNQQT: the “Fold enrichment over TTM-001” value is recorded as 4.920 fold.

As for KTINGSGSPHSCSQNQQT, the “Fold enrichment over TTM-001” value worked out at 3.428 fold.

For KTINGSGSPHSRWQNQQT, the “Fold enrichment over TTM-001” value was 3.372 fold.

Consider KTINGSGSPHSKLIRQQT, for which the “Fold enrichment over TTM-001” value worked out at 3.968 fold.

Consider “KTINGSSSPHLCAQNQQT (peptide inserted in AAV capsid)”, for which the “Fold enrichment over TTM-001” value amounted to 3.402 fold.

As to KTINGSGSPHSKVRAQQT, the “Fold enrichment over TTM-001” value stood at 2.412 fold.

Turning to KTINGSGSPHSKARYVQT, the “Fold enrichment over TTM-001” value turned out to be 2.749 fold.

For the sequence KTINGSGSPHSKAQSSRT, the “Fold enrichment over TTM-001” value was 2.575 fold.

In the case of KTINGSGSPHSKKMSQQT, the “Fold enrichment over TTM-001” value was determined as 2.235 fold.
